# Experimental data reported in PMC8921294, “Inhibition of mitochondrial LonP1 protease by allosteric blockade of ATP binding and hydrolysis via CDDO and its derivatives” (The Journal of Biological Chemistry, 2022).
# What was measured:
# Human LonP1 protease = biological target: T1, Human LonP1 protease (Homo sapiens, UniProt P36776); test: FITC-casein protease assay (ATP-dependent proteolysis); type: biochemical; settings: for Inhibition of LonP1-mediated degradation of FITC-casein: 30 min preincubation at 30 °C, ATP 4 mM; for Preincubation time after which ATP-dependent proteolysis is inhibited: preincubation at 30 °C
# T1 construct: hexa-histidine (N); made in house; host or cells: Rosetta 2 E. coli
# T1 sequence (P36776 68-959): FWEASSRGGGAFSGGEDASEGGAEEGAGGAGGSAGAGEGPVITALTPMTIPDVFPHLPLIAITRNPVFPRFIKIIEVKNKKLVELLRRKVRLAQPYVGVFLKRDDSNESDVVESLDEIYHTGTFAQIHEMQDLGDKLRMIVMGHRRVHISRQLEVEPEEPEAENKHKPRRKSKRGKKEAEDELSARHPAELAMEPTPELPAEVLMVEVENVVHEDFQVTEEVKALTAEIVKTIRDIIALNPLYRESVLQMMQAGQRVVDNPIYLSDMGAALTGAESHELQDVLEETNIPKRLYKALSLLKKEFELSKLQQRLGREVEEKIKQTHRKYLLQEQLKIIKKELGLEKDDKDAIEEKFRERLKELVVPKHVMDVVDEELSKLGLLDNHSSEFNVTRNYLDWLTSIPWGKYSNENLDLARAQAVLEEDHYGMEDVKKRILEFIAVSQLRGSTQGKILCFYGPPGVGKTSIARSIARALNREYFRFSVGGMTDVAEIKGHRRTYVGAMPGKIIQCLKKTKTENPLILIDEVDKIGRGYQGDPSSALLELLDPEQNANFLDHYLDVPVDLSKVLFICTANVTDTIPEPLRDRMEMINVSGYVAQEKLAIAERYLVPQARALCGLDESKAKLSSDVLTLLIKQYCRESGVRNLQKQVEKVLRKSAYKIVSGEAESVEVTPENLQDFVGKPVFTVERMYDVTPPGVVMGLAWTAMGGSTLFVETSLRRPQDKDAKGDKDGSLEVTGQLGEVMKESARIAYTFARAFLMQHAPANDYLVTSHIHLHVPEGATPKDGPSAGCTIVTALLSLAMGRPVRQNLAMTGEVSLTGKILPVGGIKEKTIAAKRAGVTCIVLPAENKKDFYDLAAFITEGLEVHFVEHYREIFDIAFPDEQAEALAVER
# Protocol: Human LonP1 (1.0 μM monomer) was preincubated with CDDO derivatives, TP-82, enoxolone (5 μM) or DMSO vehicle control (1%) in buffer (150 mM NaCl, 50 mM Hepes-KOH pH 8.0, 10 mM MgCl2, 0.1 mg/ml BSA) for 30 min at 30 °C. Reactions were initiated by the addition of FITC-casein (0.1 mg/ml) and ATP (4.0 mM) and incubated at 37 °C. The kinetics of FITC-casein degradation was measured by the increase in relative fluorescence units (RFU) at 490–525 nm wavelength at 37 °C using a Spectramax or Biotek Synergy plate reader. For endpoint assays, aliquots of reactions incubated at 37 °C were removed at indicated time points and terminated by adding 5X reducing sample buffer (RSB). The decrease of intact FITC-casein was determined by SDS-PAGE followed by visualization using FluorChem or Chemi-Doc systems.
# Reactions (500 μl) containing LonP1 (1.0 μM monomer) in buffer (150 mM NaCl, 50 mM Hepes-KOH pH 8.0, 10 mM MgCl2) were preincubated with CDDO-Me (10 μM) or DMSO (1%) for 60 min at 30 °C. After this period, respective aliquots (50 μl) were removed and assayed for FITC-casein degradation to confirm inhibition by CDDO-Me. The remaining 450 μl reaction was transferred to a Slide-A-Lyzer (100 kDa MWCO) and dialyzed against 500 ml Buffer K (50 mM Hepes KOH, pH 8.0, 150 mM NaCl, 10 mM MgOAc2, 20% glycerol) for 24 h at 4 °C. After this period, the protein concentration was measured to determine protein recovery and the protease activity of LonP1, which had been preincubated with and without CDDO-Me was measured using the FITC-casein degradation assay.
# 26S proteasome = test: 26S proteasome-dependent degradation of p53 in HeLa ρ^0 cells (immunoblot); type: cell-based, human; settings: 7 h
# Source text: LonP1 belongs to the AAA^+ superfamily of ATPases Associated with diverse cellular Activities, which mediate various cellular processes such as DNA replication, recombination, chromatin remodeling, ribosomal RNA processing, membrane fusion as well as ATP-dependent proteolysis ([48]). The 26S proteasome consists of the 20S proteolytic core particle, which mediates peptide bond hydrolysis and the 19S regulatory particle containing ATPases belonging to the AAA^+ family ([49]). […] We sought to test the apparent selectivity of CDDO derivatives for LonP1 but not the 26S in cultured cells. There are no known proteins that are constitutively degraded by LonP1 under baseline conditions, which would permit us to assay protease inhibition by CDDO derivatives. Therefore, we employed experimentally derived HeLa cells lacking mitochondrial DNA (mtDNA) (referred to as HeLa ρ^0 cells) ([50]), in which LonP1 constitutively degrades mitochondrial transcription factor A (TFAM) ([6]). When TFAM fails to bind mtDNA (e.g., when mtDNA is absent), it is rapidly degraded by LonP1, thus providing a readout for protease activity ([6]). An advantage of using this system is that HeLa cells express the human papillomavirus (HPV) E6 protein, which promotes constitutive degradation of p53 by the 26S proteasome. Thus, the effects of CDDO derivatives on LonP1 and the 26S proteasome can be examined in parallel.
# HeLa cells devoid of mitochondrial DNA (HeLa ρ^0) and LCL cells were generated as described previously ([50]). DMEM, RPMI, and fetal bovine serum were purchased from Sigma. All cells were grown with 5% CO2 at 37 °C. LCL cells were cultured in RPMI supplemented with 15% FBS. HeLa Rho 0 cells were cultured in high glucose DMEM (25 mM) (Sigma) supplemented with sodium pyruvate ([…]) and uridine ([…]). CDDO-Me was purchased from Cayman chemicals, and CDDO-AH was synthesized as described previously ([20]). […]
Inhibition of LonP1-mediated degradation of FITC-casein (Human LonP1 protease),Preincubation time after which ATP-dependent proteolysis is inhibited (Human LonP1 protease) [min],"Reversibility: proteolytic activity after dialysis (Human LonP1 protease; 10 μM, dialysis at 4 °C for 24 h)","Degradation of FITC-casein before dialysis (Human LonP1 protease; 10 μM, preincubation 60 min at 30 °C)",SMILES,26S proteasome-mediated degradation of p53 (26S proteasome; 20 μM),Protein levels of p53 (26S proteasome; 1 μM),26S proteasome-dependent degradation of p53 (26S proteasome; 0.125 to 0.5 μM)
inhibit,≥ 20,–,–,"CC1(C)CC[C@]2(C(=O)O)CC[C@]3(C)[C@H](C(=O)C=C4[C@@]5(C)C=C(C#N)C(=O)C(C)(C)[C@@H]5CC[C@]43C)[C@@H]2C1 [CDDO, 2-cyano-3,12-dioxooleana-1,9(11)-dien-28-oic acid]",–,–,–
–,–,–,–,CC1(C)CC[C@]2(C(=O)OC(=O)[C@]34CCC(C)(C)C[C@H]3[C@H]3C(=O)C=C5[C@@]6(C)C=C(C#N)C(=O)C(C)(C)[C@@H]6CC[C@@]5(C)[C@]3(C)CC4)CC[C@]3(C)[C@H](C(=O)C=C4[C@@]5(C)C=C(C#N)C(=O)C(C)(C)[C@@H]5CC[C@]43C)[C@@H]2C1 [CDDO-anhydride],did not block,–,–
inhibit,5,restored proteolytic activity,completely block,COC(=O)[C@]12CCC(C)(C)C[C@H]1[C@H]1C(=O)C=C3[C@@]4(C)C=C(C#N)C(=O)C(C)(C)[C@@H]4CC[C@@]3(C)[C@]1(C)CC2 [CDDO-Me],–,increased,did not block
